What was measured:
[1] = system: Normal cells (PBMC, HUVEC, and WI-38); experiment: Cancer cell selective growth inhibition (cancer cells vs normal cells); assay type: cell-based, human; conditions: 72 hr MTS
Description: […] Peripheral blood mononuclear cells (PBMCs) were voluntarily collected from a healthy laboratory worker by standard sterile phlebotomy techniques and isolated using Vacutainer CPT collection tubes (BD Biosciences—Bedford, Mass.). PBMCs were isolated freshly for each experiment. All DMEM and RPMI-1640 media was supplemented with 10% FBS (Atlanta Biologicals—Lawrenceville, Ga.) and 100 U/mL penicillin and streptomycin (Invitrogen). HUVEC (Human umbilical vein endothelial cells) were cultured in EGM-2 media with supplements provided in the manufacturers BulletKit (Lonza—Walersville, Md.). All cells were maintained at 37° C. and in a 5% CO2 atmosphere.
Growth Inhibition Assays: HeLa, MDA-MB-231, PC-3M, WI-38, and HUVEC cells were plated at 5,000 cells per well in 96 well plates and allowed to attach for 20 hr (8 hr for HeLa). The media was removed and 198 μL of fresh media was added to each well. […] PBMCs were isolated and plated at 100,000 per well in 96 well plates with a volume of 197 μL. They were allowed to settle in the media for 20 hr, at which point 1 μL of 1 mg/mL phytohemagglutinin (Sigma—St. Loius Mo.) in PBS was added to stimulate proliferation (final concentration of 5 μg/mL). […] Cell proliferation was measured at t=0 (time at start of treatment) and t=72 hr using MTS AQueous non-radioactive proliferation assay (Promega—Madison, Wis.). This assay utilizes the metabolic conversion of yellow tetrazolium to a purple formazan by live cells and the color change is proportional to the number of cells. […] The absorbance at 490 nm in each well was read with a Spectramax 250 plate reader (Molecular Devices—Sunnyvale, Calif.). […] Data were fit to one site dose response curves in order to obtain specific growth inhibitory concentrations and the relative standard errors of the mean for these concentrations were calculated by the XLfit4 software. Statistical significance (p value) for the selectivity and all subsequent assays was determined with the two tailed homoscedastic Student's t-test. […]

pBR322 plasmid DNA = experiment: DNA intercalation assay (topoisomerase I based plasmid DNA unwinding); assay type: biochemical; conditions: 10, 31.6, and 100 μM, human topoisomerase I
Description: DNA Intercalation Assay: A DNA unwinding assay was performed as previously described with minor modifications. Four Units of recombinant wild type human topoisomerase I (Topogen—Port Orange, Fla.) were incubated with reaction buffer (included with enzyme), ˜0.5 μg of pBR322 plasmid DNA, which is a mixture of form I and form II plasmid DNA, and water added to a final volume of 19 μL. The reactions were incubated at 37° C. for 30 min and then 1 μL of each compound was added to give a final concentration of 10, 31.6, and 100 μM (final solvent concentration of 1% DMSO) and the reaction mixture was incubated at 37° C. for another 30 min. The reaction was stopped by the addition of 5 μL gel loading dye. The samples were immediately loaded onto a 1% agarose gel and electrophoresis was performed at 50 V for 3 h at room temperature. Pictures of the gels were obtained using a Kodak Image Station 440 CF (Kodak—Rochester, N.Y.) equipped with a UV source.
This activity depends on the ability of these compounds to intercalate DNA, which is the proposed mechanism of cytotoxic action of amonafide and its analogs. Therefore, the intercalation of plasmid DNA by A1-A9 was compared with the intercalation by amonafide to determine if they behave similarly. A topoisomerase I (topo I) based plasmid DNA unwinding assay was used to determine the intercalation of each compound [1]. […]

[2] = system: HeLa, PC-3M, and MDA-MB-231; experiment: MTS growth inhibition assay, human cancer cell lines; assay type: cell-based; conditions: 72 hr, MTS proliferation assay
Description: Cell Culture: HeLa (cervical carcinoma), WI-38 (normal human […] fibroblasts), and MDA-MB-231 (breast carcinoma), cells were cultured in DMEM (Invitrogen—Carlsbad, Calif.) and PC-3M (metastatic prostate carcinoma) cells were cultured in RPMI-1640. Peripheral blood mononuclear cells (PBMCs) were voluntarily collected from a healthy laboratory worker by standard sterile phlebotomy techniques and isolated using Vacutainer CPT collection tubes (BD Biosciences—Bedford, Mass.). PBMCs were isolated freshly for each experiment. All DMEM and RPMI-1640 media was supplemented with 10% FBS (Atlanta Biologicals—Lawrenceville, Ga.) and 100 U/mL penicillin and streptomycin (Invitrogen). […]
Growth Inhibition Assays: HeLa, MDA-MB-231, PC-3M, WI-38, and HUVEC cells were plated at 5,000 cells per well in 96 well plates and allowed to attach for 20 hr (8 hr for HeLa). […] Cell proliferation was measured at t=0 (time at start of treatment) and t=72 hr using MTS AQueous non-radioactive proliferation assay (Promega—Madison, Wis.). […] The absorbance at 490 nm in each well was read with a Spectramax 250 plate reader (Molecular Devices—Sunnyvale, Calif.). […] Data were fit to one site dose response curves in order to obtain specific growth inhibitory concentrations and the relative standard errors of the mean for these concentrations were calculated by the XLfit4 software. […]

Chk2 = experiment: DNA damage response assay (pThr68-Chk2 / total Chk2 western blot); assay type: cell-based, human; conditions: HeLa cells, [GI99%], 20 hr, normalized to mitoxantrone
Description: DNA Damage Response Assay: 250,000 HeLa cells were plated in 35 mm culture dishes and allowed to attach for 8 hr and were then treated with the [GI99%] of each compound for 20 hr (total media volume was […] with 1% DMSO). After treatment cells were lysed in 150 μL detergent buffer containing 1:100 v/v protease inhibitor cocktail (Sigma—St. Louis, Mo.). Lysates were run on denaturing 12% acrylamide gels and transferred to nitrocellulose membranes. The membranes were blocked in blotto, incubated in anti-pThr68-Chk2 antibody (Cell Signaling—Danvers, Mass.) at 1:500 v/v dilution in blotto overnight 4° C., washed, incubated in HRP conjugated anti-rabbit secondary antibody (Jackson) at 1:5,000 v/v dilution in blotto for 1 hr, and then developed. The membranes were then stripped with a reducing buffer, blocked in blotto, incubated in anti-Chk2 antibody (Biolegend—San Diego, Calif.) at 1:500 v/v dilution in blotto overnight at 4° C., washed, incubated in HRP conjugated anti-mouse secondary antibody (Jackson) at 1:5,000 v/v dilution in blotto for 1 hr, and then developed. Membranes were developed with PicoWest Developing Solution (Pierce) and exposed to film. The intensities of bands were quantified as described in the previous section. The data are expressed as the average ratio of pThr68-Chk2 to total Chk2 as normalized to the mitoxantrone control in each of three independent experiments.
Topoisomerase inhibition by most mechanisms should cause activation of DNA damage response pathways because of the production of single and double strand DNA breaks, as is the case with amonafide. […] Therefore, measuring the DNA damage response at a fixed cytotoxic dose ([GI99%]) will determine the extent that DNA damage contributes to the cytotoxicity of these compounds. […] Activation of Chk2 was determined by measuring the ratio of pThr68-Chk2 to total Chk2 in HeLa cells treated with the [GI99%].

HeLa cells = experiment: Transwell invasion assay; assay type: cell-based, human; conditions: [GI99%], matrigel, 20 hr
Description: Transwell Invasion Assay: HeLa cells were plated at 250,000 per 35 mm well and allowed to attach for 8 hr. The cells were washed with PBS and then treated for 4 hr with the [GI99%] of each compound (or 1% DMSO—vehicle control) in serum free media to decrease the number of invading cells in the beginning of the experiment due to a preliminary lack of drug exposure. The cells were then trypsinized and counted by trypan blue exclusion with a hemacytometer (Sigma—St. Louis, Mo.). Eight micron pore size control well inserts for 12 well plates (BD Biosciences) were coated with 100 μL 1 mg/mL matrigel (Sigma—St. Louis, Mo.) and allowed to solidify at room temperature for 1 hr. The excess matrigel was aspirated and the inserts were gently washed with PBS. The cells were seeded at a density of 300,000 per insert well in a volume of 500 μL serum free media containing a derivative or vehicle. The inserts were then placed in wells containing 700 μL serum free media with the respective compound. After 20 hr the cells on the top of the membranes were gently removed with a cotton swab, the membranes then were fixed in methanol for 1 min, stained in Gills No. 3 Hematoxylin (Sigma—St. Louis, Mo.) for 5 min, rinsed in tap water, and allowed to dry overnight. The membranes were excised, mounted on slides, and the cells were counted under the 40× objective of a bright field microscope. The data are expressed as the average total number of invading cells counted in 20 fields of each membrane, as standardized to the vehicle control, from six experiments.
Effect of derivatives on the malignant phenotype—invasion assay: If A1-A9 have differential targets, DNA binding specificity, or downstream effects they may differentially alter the malignant behavior of cells. Also, anti-cancer compounds can be efficacious against tumors in other ways besides inhibiting growth and inducing death of cancer cells; they can also alter the behavior of malignant cells. Therefore, the ability of A1-A9 and amonafide to alter the invasive behavior of cancer cells in a transwell (also known as Boyden chamber) invasion assay was evaluated, which determines the ability of cells to migrate through a proteinacious gel. This behavior is considered to be representative of cancer cell invasion through the basement membrane of the primary tumor environment. In this assay, treated cells are seeded on to the top of the matrigel-coated porous membrane, allowed to invade through the proteinacious gel onto the underside of the membrane, and then counted.

Row | Structure (SMILES) | cancer cell selective growth inhibition (selectivity) [1] | DNA intercalation (pBR322 plasmid DNA) | growth inhibition potency [2] | DNA damage response (ratio of pThr68-Chk2 to total Chk2) (Chk2) | invasive behavior (% invading cells vs vehicle) (HeLa cells)
1 | CCCCCCNc1ccc2c3c(cccc13)C(=O)N(CCN(C)C)C2=O [A5, 6-hexylamino-2-[2-(dimethylamino)ethyl]-1H-benz[de]isoquinoline-1,3(2H)-dione] | doing so significantly (p<0.05) | intercalates much less than the other compounds |  |  | 
2 | CN(C)CCN1C(=O)c2cccc3cccc(c23)C1=O [A9, 2-[2-(dimethylamino)ethyl]-1H-benz[de]isoquinoline-1,3(2H)-dione] |  |  | still remains fairly potent | evoked the strongest DNA damage response | decreases invasive behavior
